Results reported in patent US9006185B2, “Use of cell-permeable peptide inhibitors of the JNK signal transduction pathway for the treatment of various diseases” (Xigen Inflammation Ltd., priority 2008, dated 2015).
“Also recorded” adds a separate entry of the source.

Experiments:
murine T cells = assay: PMA & ionomycin-induced cytokine production in murine T cells; type: cell-based
[1] = kept at 4-8° C
Experimental: Unused diluted material could be stored for up to 7 days if kept at 4-8° C. c) Experimental Procedure

Jurkat cells = assay: PMA & ionomycin-induced cytokine production in Jurkat cells; type: cell-based
[2] = test system: recombinant JNK1, JNK2 and JNK3; assay: Solid phase kinase assay, phosphorylation of c-Jun, ATF2 and Elk1 by recombinant JNKs; type: biochemical; settings: GST-Jun (aa 1-73), JNK1, JNK2, JNK3, 0-250 μM dosage study
Experimental: The effects of the peptides on JNKs-mediated phosphorylation of their target transcription factors were investigated in vitro. Recombinant and non activated JNK1, JNK2 and JNK3 were produced using a TRANSCRIPTION AND TRANSLATION rabbit reticulocyte lysate kit (Promega) and used in solid phase kinase assays with c-Jun, ATF2 and Elk1, either alone or fused to glutathione-S-transferase (GST), as substrates. Dose response studies were performed wherein L-TAT or L-TAT-IB1(s) peptides (0-25 μM) were mixed with the recombinant JNK1, JNK2, or JNK3 kinases in reaction buffer (20 mM Tris-acetate, 1 mM EGTA, 10 mM p-nitrophenyl-phosphate (pNPP), 5 mM sodium pyrophosphate, 10 mM p-glycerophosphate, 1 mM dithiothreitol) for 20 minutes. The kinase reactions were then initiated by the addition of 10 mM MgCl2 and 5 pCi ^33P-dATP and 1 μg of either GST-Jun (aa 1-89), GST-AFT2 (aa 1-96) or GST-ELK1 (aa 307-428). GST-fusion proteins were purchased from Stratagene (La Jolla, Calif.).
Ten μL of glutathione-agarose beads were also added to the mixture. Reaction products were then separated by SDS-PAGE on a denaturing 10% polyacrylamide gel. Gels were dried and subsequently exposed to X-ray films (Kodak). […] The ability of D-TAT, D-TAT-IB1(s) and L-TAT-IB1(s) peptides (0-250 μM dosage study) to inhibit GST-Jun (aa 1-73) phosphorylation by recombinant JNK1, JNK2, and JNK3 by were analyzed as described above. […]

C57BL/6 mice = assay: Bleomycin induced lung fibrosis; type: in vivo; settings: for histology: inflammatory cells accumulation, fibrotic areas, loss of lung architecture: day 10
Text: In order to determine the activity of the exemplary all-D retro-inverso IB(s) peptide XG-102 (SEQ ID NO: 11) in the treatment of Chronic Obstructive Pulmonary Disease (COPD) XG-102 (SEQ ID NO: 11) is used in an animal model of Bleomycin induced acute lung inflammation and fibrosis. The protocol of bleomycin induced inflammation and fibrosis has been described before in the literature. The aim of the Experiment was to investigate the effect of XG-102 (SEQ ID NO: 11) by subcutaneous (s.c.) route on neutrophil recruitment in broncho alveolar lavage (BAL) and lung in bleomycin induced inflammation and fibrosis: • at 1 day after a single bleomycin administration (10 mg/kg) • and at day 10 with the development of fibrosis 1) Method and Experimental Approach • The test compound XG-102 (SEQ ID NO: 11) at two doses and vehicle control were given s.c. with a single intranasal administration of bleomycin and mice were analyzed after 1 and 10 days. The animals used in the model were 10 C57BL/6 mice (8 weeks old) per group. The experimental groups included vehicle, 0.001 mg/kg XG-102 (SEQ ID NO: 11) and 0.1 mg/kg XG-102 (SEQ ID NO: 11), and the treatment consisted of repeated sub-cutaneous administration of XG-102 (SEQ ID NO: 11), prior to bleomycin administration then every 3 days. Acute lung inflammation at 24 h was monitored by BAL lavage, cytology, cell counts, and lung myeloperoxidase activity. The effect of the compound was compared with vehicle controls. Lung fibrosis was assessed histologically using hematoxylin and eosin staining at day 10 after the single dose of bleomycin. […] 1.4) Cell Count and Determination • Total cell count was determined in BAL fluid using a Malassez hemocytometer. […] 1.5) TNF Measurement • TNF level in BALF was determined using ELISA assay kits (Mouse DuoSet, R&D system, Minneapolis, USA) according to manufacturer's instructions. […] 1.6) MPO-Measurement • MPO-levels were measured upon administration of XG-102. […]

[3] = test system: Primary cultured macrophages; type: cell-based
Experimental: FIG. 24 Primary cultured macrophages were incubated with XG-102 (SEQ ID NO: 11) and extensively washed.

Text for db/db mice: i) Animals • A total of twenty (20) male db/db mice (8 weeks old) were obtained from Charles River (Germany). Upon arrival, animals were group housed (n=6-7/group) and offered regular rodent chow (Altromin standard #1324 chow; C. Petersen, Ringsted, Denmark) and water ad libitum unless otherwise stated. • The mice were housed under a 12:12 L/D cycle (lights on at 4:00 and lights off at 16:00) and in temperature and humidity controlled rooms.
ii) Groups and Randomization • On day 4, mice were randomized according to blood glucose level (fasted; blood glucose measured on Biosen S line analyzer (EKF diagnostic, Germany) to participate in one of the following drug treatment groups (n=6): • 1) Vehicle control, S.C. […] Drug purity: 95.28%, peptide content: 78.0%. All compounds were administered sub-cutaneously (s.c.) in a volume of 3 ml/kg. […] The formulations (concentrations of 0.33 and 3.3 mg/ml, corresponding to the doses of 1 and 10 mg/kg, respectively) were prepared according to the procedure detailed below. […] Aliquots are prepared for each treatment day and stored at approximately −80° C. Dilutions of this stock solution to the required concentrations are performed on each treatment day; • Storage of the stock solution: at approximately −80° C.; • Storage of the diluted preparations: at room temperature for 24 hours maximum. • Prior to solubilisation, the powder was stored at −20° C. The stability of the stock solution is 3 months at approximately −80° C.; the stability of the diluted formulations for animal dosing is 24 hours at room temperature. Unused diluted material could be stored for up to 7 days if kept at 4-8° C. c) Experimental Procedure
Following 8 days of acclimatization the mice were treated daily at 08.00 AM for 21 days by SC dosing 8 hours prior to lights out at 04.00 PM according to the outline groups.
i) Blood Glucose • Blood glucose was measured from 7 hour fasted animals 6 hours post dosing by collection of 10 μl blood samples from the tail-vein in hematocrite tubes and subsequent analysis on a Biosen s-line analyzer (EKF-diagnostic; Germany).
ii) Metabolic Cages • Groups 1+3: Mice were placed in metabolic cages for the recording of 24-hour food and water intake as well as 24-hour urine and feces production. Mice were stratified into two sub-teams of n=6-7 and subsequently the metabolic characterisation were performed on study days 71-72.
iii) Adipokine Panel • Groups 1+3: On three occasions (study days 57, 66 and 108) blood was collected from the tail vein using EDTA coated hematocrite tubes (100 μl). Following centrifugation of blood the plasma was collected and stored at −20° C. until measurement. Then, the following panel of adipokines/cytokines was determined using Luminex based 7-plex: leptin, resistin, MCP-1, PAI-1, TNF, insulin and interleukin-6 (IL-6).
iv) Termination • Groups 1+3 (day 111): The following organs were excised and weighed: inguinal subcutaneous fat, epididymal fat, retroperitoneal fat, brain, liver, kidney, spleen and heart. All organs described above were samples in 4% PFA for possible future histo-pathological examination. Also, pancreas (en bloc) was sampled for possible stereological and immunohistochemical analysis, and eyes were sampled for possible later analysis of retinopathy. Group 2 (day 28): No tissues or plasma were collected. c) Results

CC(C)C[C@@H](NC(=O)[C@@H](Cc1ccccc1)NC(=O)[C@H]1CCCN1C(=O)[C@@H](CCC(N)=O)NC(=O)[C@H](NC(=O)[C@H]1CCCN1C(=O)[C@@H](CCCNC(=N)N)NC(=O)[C@@H](CO)NC(=O)[C@@H](CCC(N)=O)NC(=O)[C@H](N)CC(=O)O)C(C)C)C(=O)N[C@H](CC(N)=O)C(=O)N[C@H](CC(C)C)C(=O)N[C@@H](C(=O)N[C@@H](C(=O)N1CCC[C@@H]1C(=O)N[C@H](CCCNC(=N)N)C(=O)N[C@H](CCCCN)C(=O)N1CCC[C@@H]1C(=O)N[C@H](CCCNC(=N)N)C(=O)N1CCC[C@@H]1C(=O)N1CCC[C@@H]1C(=O)N[C@H](CCCNC(=N)N)C(=O)N[C@H](CCCNC(=N)N)C(=O)N[C@H](CCCNC(=N)N)C(=O)N[C@H](CCC(N)=O)C(=O)N[C@H](CCCNC(=N)N)C(=O)N[C@H](CCCNC(=N)N)C(=O)N[C@H](CCCCN)C(=O)N[C@H](CCCCN)C(=O)N[C@H](CCCNC(=N)N)C(=O)NCC(=O)O)[C@H](C)O)[C@H](C)O [XG-102]
PMA & ionomycin-induced TNFa and IFNg production (murine T cells): also inhibits cytokine release in primary lymphoid and myeloid cells
storage of unused diluted material [1]: up to 7 days
fasting blood glucose (db/db mice; 1 mg/kg s.c., 28 days of dosing): no effect
body weight (db/db mice; 1 mg/kg, 28 days of dosing): no effect
fasting blood glucose, low plateau (db/db mice; 10 mg/kg s.c.): approximately 5 mmol/L
fasting blood glucose vs vehicle control (db/db mice; 10 mg/kg s.c. daily for 21 days, then wash-out to day 111): clear and significant (p<0.001) decrease in the level of fasting blood glucose
plasma levels of insulin, MCP-1, IL-6, tPAI-1, TNF (db/db mice; 10 mg/kg, day 57, 77 and 108): no significant effects
plasma resistin (db/db mice; 10 mg/kg, day 77 and 108): significantly higher
body weight vs vehicle control (db/db mice; 10 mg/kg, from day 28 to day 111): clear and significant (p<0.001) prevention of body weight increase
24 hour food and water intake, urine and feces production (metabolic cages) (db/db mice; 10 mg/kg, study day 68): no significant effects
tissue weight of epididymal and retroperitoneal fat pads (db/db mice; 10 mg/kg, termination day 111): significant decrease of epididymal (p<0.05) and retroperitoneal (p<0.01) fat mass
tissue weight of kidney and liver (db/db mice; 10 mg/kg, termination day 111): significant decrease of kidney (p<0.05) and liver (p<0.01) mass
alertness, activity, sedation (db/db mice; mouse, in vivo): no signs of sedation
PMA & ionomycin-induced IFNg, IL-6 and IL-2 production (Jurkat cells): inhibits cytokine release in both myeloid and lymphoid cell lines
efficiency in decreasing JNK-mediated phosphorylation of c-Jun, fold less than L-TAT-IB1(s) [2]: 10-20 fold
lymphocyte recruitment and total cells in bronchioalveolar lavage space (C57BL/6 mice; 0.001 mg/kg s.c., 3 times in 10 days): reduced significantly the lymphocyte recruitment and the number of total cells recruited
histology: inflammatory cells accumulation, fibrotic areas, loss of lung architecture (C57BL/6 mice; high dose 0.1 mg/kg): not with the high dose
histology: inflammatory cells accumulation, fibrotic areas, loss of lung architecture (C57BL/6 mice; low dose 0.001 mg/kg, 0.001 mg/kg): A decrease of these parameters was observed; also recorded: attenuates the Bleomycin-induced fibrosis
incorporation into primary macrophages [3]: strongly incorporated into primary macrophages
